Results on 18 molecules are retold here after US12018021B2 (UCB Biopharma SRL, priority 2018, dated 2024).

SMILES strings stand for the structures.

Chain of IgE-Tb / FcεRIα-Y131A-AF488 (P01854 1-427 limits assumed, stated change not applied): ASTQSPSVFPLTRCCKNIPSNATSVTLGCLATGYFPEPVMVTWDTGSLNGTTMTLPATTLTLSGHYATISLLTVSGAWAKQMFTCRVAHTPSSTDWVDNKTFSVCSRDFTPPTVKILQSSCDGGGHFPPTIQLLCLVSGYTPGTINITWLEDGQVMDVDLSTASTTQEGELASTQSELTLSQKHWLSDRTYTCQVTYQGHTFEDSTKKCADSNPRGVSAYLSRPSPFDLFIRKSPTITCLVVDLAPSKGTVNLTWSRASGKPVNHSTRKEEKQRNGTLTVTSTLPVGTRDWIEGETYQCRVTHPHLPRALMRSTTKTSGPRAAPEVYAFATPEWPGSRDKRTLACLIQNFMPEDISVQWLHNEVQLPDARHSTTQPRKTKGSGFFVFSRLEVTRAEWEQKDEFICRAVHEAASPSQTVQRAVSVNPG

This assay addresses IgE-Tb / FcεRIα-Y131A-AF488 (Homo sapiens, UniProt P01854). The assay can be described thus: IgE-Tb / FcεRIα-Y131A-AF488 FRET assay (protocol for examples 1 to 233). Type of assay: binding. The settings on record: examples 1 to 233: 5 nM IgE-Tb, 25 nM FcεRIα-Y131A-AF488, incubated 2 hours at room temperature; read-out: Y131A FRET IC50 range. Put shortly:
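Compounds (top final concentration usually 10 μM, 3-fold, 10 points, 2% DMSO) incubated 2 h at room temperature with IgE-Tb (5 nM) and FcεRIα-Y131A-AF488 (25 nM). Background from 200 nM unlabelled receptor subtracted; FRET ratio 520/495 nm after 330 nm excitation gave percent inhibition, fitted four-parameter for IC50.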
The term IC50 denotes the concentration at which inhibition is half-maximal. `COc1ccc(NC(=O)NC2CCc3sc(NC(=O)C4CC4)c(C(=O)NCC(C)C)c3C2)cc1` (stereo not drawn) [Example 209, 2-(Cyclopropanecarbonylamino)-N-isobutyl-5-[(4-methoxyphenyl)carbamoylamino]-4,5,6,7-tetrahydrobenzothiophene-3-carboxamide]: the IC50 was less than 1 µM.
Under `O=C(NCC1CC1)c1c(NC(=O)C2CC2)sc2c1CC(Nc1nc(=O)cc(C(F)(F)F)[nH]1)CC2` (stereo not drawn) [Example 210, 2-(Cyclopropanecarbonylamino)-N-(cyclopropylmethyl)-5-[[4-oxo-6-(trifluoromethyl)-1H-pyrimidin-2-yl]amino]-4,5,6,7-tetrahydrobenzothiophene-3-carboxamide] stands less than 1 µM; under `CC1CCN(C(=O)c2c(NC(=O)C3CC3)sc3c2CC(NS(C)(=O)=O)CC3)C1` (stereo not drawn) [Example 211, N-[5-(Methanesulfonamido)-3-(3-methylpyrrolidine-1-carbonyl)-4,5,6,7-tetrahydrobenzothiophen-2-yl]cyclopropanecarboxamide], 1 to 10 µM; under `CCCNC(=O)c1c(NC(=O)C2CC2)sc2c1CC(NC(=O)Nc1ccc(OC(F)(F)F)cc1)CC2` (stereo not drawn) [Example 212, 2-(Cyclopropanecarbonylamino)-N-propyl-5-[[4-(trifluoromethoxy)phenyl]carbamoylamino]-4,5,6,7-tetrahydrobenzothiophene-3-carboxamide], less than 1 µM.
With `CC(C)C(=O)Nc1nncn1[C@H]1CCc2sc(NC(=O)C3CC3)c(C(=O)NCC3CC3)c2C1` [Example 213, (5S)-2-(cyclopropanecarbonylamino)-N-(cyclopropylmethyl)-5-[3-(2-methylpropanoylamino)-1,2,4-triazol-4-yl]-4,5,6,7-tetrahydrobenzothiophene-3-carboxamide], the IC50 was less than 1 µM.
Under `Cc1cc(N(C)c2nncn2[C@H]2CCc3sc(NC(=O)C4CC4)c(C(=O)NCC4CC4)c3C2)n(C)n1` [Example 214, (5S)-2-(cyclopropanecarbonylamino)-N-(cyclopropylmethyl)-5-[3-[(2,5-dimethylpyrazol-3-yl)-methyl-amino]-1,2,4-triazol-4-yl]-4,5,6,7-tetrahydrobenzothiophene-3-carboxamide] stands 1 to 10 µM; under `Cc1cc(Nc2nncn2[C@H]2CCc3sc(NC(=O)C4CC4)c(S(=O)(=O)NCC4CC4)c3C2)n(C)n1` [Example 215, N-[(5S)-3-(cyclopropylmethylsulfamoyl)-5-[3-[(2,5-dimethylpyrazol-3-yl)amino]-1,2,4-triazol-4-yl]-4,5,6,7-tetrahydrobenzothiophen-2-yl]cyclopropanecarboxamide], less than 1 µM; under `Cc1nnc(-c2ncn([C@H]3CCc4sc(NC(=O)C5CC5)c(C(=O)NCC5CC5)c4C3)c2N)o1` [Example 216, (5S)-5-[5-amino-4-(5-methyl-1,3,4-oxadiazol-2-yl)imidazol-1-yl]-2-(cyclopropanecarbonylamino)-N-(cyclopropylmethyl)-4,5,6,7-tetrahydrobenzothiophene-3-carboxamide], less than 1 µM.
Under `Cc1cc(Nc2nncn2[C@H]2CCc3sc(NC(=O)C4CC4)c(C(=O)NCC4CC4)c3C2)[nH]n1` [Example 217, (5S)-2-(cyclopropanecarbonylamino)-N-(cyclopropylmethyl)-5-[3-[(3-methyl-1H-pyrazol-5-yl)amino]-1,2,4-triazol-4-yl]-4,5,6,7-tetrahydrobenzothiophene-3-carboxamide] stands less than 1 µM; under `Cc1nn(C)cc1Nc1nncn1[C@H]1CCc2sc(NC(=O)C3CC3)c(C(=O)NCC3CC3)c2C1` [Example 218, (5S)-2-(cyclopropanecarbonylamino)-N-(cyclopropylmethyl)-5-[3-[(1,3-dimethylpyrazol-4-yl)amino]-1,2,4-triazol-4-yl]-4,5,6,7-tetrahydrobenzothiophene-3-carboxamide], less than 1 µM.
Under `Cn1nc(C2CC2)cc1Nc1nncn1[C@H]1CCc2sc(NC(=O)C3CC3)c(C(=O)NCC3CC3)c2C1` [Example 219, (5S)-2-(cyclopropanecarbonylamino)-N-(cyclopropylmethyl)-5-[3-[(5-cyclopropyl-2-methyl-pyrazol-3-yl)amino]-1,2,4-triazol-4-yl]-4,5,6,7-tetrahydrobenzothiophene-3-carboxamide] stands less than 1 µM; under `CC(C)c1cc(Nc2nncn2[C@H]2CCc3sc(NC(=O)C4CC4)c(C(=O)NCC4CC4)c3C2)n(C)n1` [Example 220, (5S)-2-(cyclopropanecarbonylamino)-N-(cyclopropylmethyl)-5-[3-[(5-isopropyl-2-methyl-pyrazol-3-yl)amino]-1,2,4-triazol-4-yl]-4,5,6,7-tetrahydrobenzothiophene-3-carboxamide], less than 1 µM.
For `Cn1nc(C(F)(F)F)cc1Nc1nncn1[C@H]1CCc2sc(NC(=O)C3CC3)c(C(=O)NCC3CC3)c2C1` [Example 221, (5S)-2-(cyclopropanecarbonylamino)-N-(cyclopropylmethyl)-5-[3-[[2-methyl-5-(trifluoromethyl)pyrazol-3-yl]amino]-1,2,4-triazol-4-yl]-4,5,6,7-tetrahydrobenzothiophene-3-carboxamide], the IC50 was less than 1 µM.
For the molecule `Cc1cc(Nc2nncn2[C@H]2CCc3sc(NC(=O)C4CC4)c(C(=O)NCC4CC4)c3C2)n(C(C)C)n1` [Example 222, (5S)-2-(cyclopropanecarbonylamino)-N-(cyclopropylmethyl)-5-[3-[(2-isopropyl-5-methyl-pyrazol-3-yl)amino]-1,2,4-triazol-4-yl]-4,5,6,7-tetrahydrobenzothiophene-3-carboxamide], the IC50 is less than 1 µM.
As for `Cc1cc(Nc2nncn2[C@H]2CCc3sc(NC(=O)C4CC4)c(C(=O)NCC4CC4)c3C2)n(C2CCOC2)n1` (stereo partly drawn) [Example 223, (5S)-2-(cyclopropanecarbonylamino)-N-(cyclopropylmethyl)-5-[3-[(5-methyl-2-tetrahydrofuran-3-yl-pyrazol-3-yl)amino]-1,2,4-triazol-4-yl]-4,5,6,7-tetrahydrobenzothiophene-3-carboxamide], the figure is less than 1 µM; as for `Cn1nccc1Nc1nncn1[C@H]1CCc2sc(NC(=O)C3CC3)c(C(=O)NCC3CC3)c2C1` [Example 224, (5S)-2-(cyclopropanecarbonylamino)-N-(cyclopropylmethyl)-5-[3-[(2-methylpyrazol-3-yl)amino]-1,2,4-triazol-4-yl]-4,5,6,7-tetrahydrobenzothiophene-3-carboxamide], less than 1 µM.
Under `CCn1nc(C)cc1Nc1nncn1[C@H]1CCc2sc(NC(=O)C3CC3)c(C(=O)NCC3CC3)c2C1` [Example 225, (5S)-2-(cyclopropanecarbonylamino)-N-(cyclopropylmethyl)-5-[3-[(2-ethyl-5-methyl-pyrazol-3-yl)amino]-1,2,4-triazol-4-yl]-4,5,6,7-tetrahydrobenzothiophene-3-carboxamide] stands less than 1 µM; under `Cc1cc(Nc2nncn2[C@H]2CCc3sc(NC(=O)C4CC4)c(C(=O)NCC4CC4)c3C2)n(C2CC2)n1` [Example 226, (5S)-2-(cyclopropanecarbonylamino)-N-(cyclopropylmethyl)-5-[3-[(2-cyclopropyl-5-methyl-pyrazol-3-yl)amino]-1,2,4-triazol-4-yl]-4,5,6,7-tetrahydrobenzothiophene-3-carboxamide], less than 1 µM.
